Experiments:
Type in all cases: in vivo
Myzus persicae [1] = experiment: Myzus persicae spray test; settings: in Brassica rapa, foliar, 120 h
Method: Myzus persicae—Spray Test
(§1) To produce a suitable preparation of active compound, 1 part by weight of active compound is mixed with the stated amount of solvents and is diluted with water, containing an emulsifier concentration of 1000 ppm, to the desired concentration. Further test concentrations are prepared by dilution with emulsifier containing water.
Chinese cabbage (Brassica pekinensis) leaf disks infected with all instars of the green peach aphid (Myzus persicae), are sprayed with a preparation of the active ingredient of the desired concentration.
After 5 days mortality in % is determined. 100% means all aphids have been killed and 0% means none of the aphids have been killed.

Nezara viridula = Nezara viridula spray test; settings: in Hordeum vulgare, 96 h
Procedure, shortened: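 Barley plants infested with stink bug larvae were sprayed with compound diluted in water containing 1000 ppm emulsifier. Mortality (%) was scored after 4 days, 100% meaning all bugs killed.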

Ctenocephalides felis [2] = experiment: Ctenocephalides felis oral test; settings: Ctenocephalides felis, in Bos taurus, po, 48 h
Procedure, shortened: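 About 20 adult unfed fleas fed through parafilm on cattle blood containing compound (DMSO concentrate diluted in blood); blood held at 37° C., fleas at room temperature. Mortality in % scored after 2 days (100% = all killed).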

Ctenocephalides felis [3] = experiment: Ctenocephalides felis in-vitro contact test adult cat flea; settings: Ctenocephalides felis; 5 μg/cm^2 (=500 g/ha), after 48 hours; read-out: efficacy (fleas dead or moribund)
Method: Ctenocephalides felis—In-Vitro Contact Test Adult Cat Flea
9 mg compound is solved in 1 ml acetone and diluted with acetone to the desired concentration. 250 μl of the test solution is filled in 25 ml glass test tubes and homogeneously distributed on the inner walls by rotation and tilting on a shaking device (2 h at 30 rpm). With a compound concentration of 900 ppm, an inner surface of 44.7 cm^2 and a homogeneous distribution, a dose of 5 μg/cm^2 is achieved.
After the solvent has evaporated, each test tube is filled with 5-10 adult cat fleas (Ctenocephalides felis), closed with a perforated lid and incubated in a lying position at room temperature and relative humidity. After 48 hours efficacy is determined. The fleas are patted on the ground of the tubes and are incubated on a heating plate at 45-50° C. for at most 5 minutes. Immotile or uncoordinated moving fleas, which are not able to escape the heat by climbing upwards, are marked as dead or moribund.
An efficacy of 100% means all fleas are dead or moribund; 0% means no fleas are dead or moribund.

Boophilus microplus = Boophilus microplus injection test; settings: Rhipicephalus microplus, 168 h, 20 μg/animal, egg deposition after 7 days, read-out: efficacy (infertile eggs)
Method: Boophilus microplus—Injection Test
Solvent: dimethyl sulfoxide
To produce a suitable preparation of active compound, 10 mg of active compound are dissolved in 0.5 ml solvent, and the concentrate is diluted with solvent to the desired concentration.
Five adult engorged female ticks (Boophilus microplus) are injected with 1 μl compound solution into the abdomen. The ticks are transferred into replica plates and incubated in a climate chamber.
After 7 days egg deposition of fertile eggs is monitored. Eggs where fertility is not visible are stored in a climate chamber till hatching after about 42 days. An efficacy of 100% means all eggs are infertile; 0% means all eggs are fertile.

Nilaparvata lugens = Nilaparvata lugens spray test; settings: Nilaparvata lugens, in Oryza sativa, 96 h
Method: Nilaparvata lugens—Spray Test
as §1
Rice plants (Oryza sativa) are sprayed with a preparation of the active ingredient of the desired concentration and the plants are infested with the brown planthopper (Nilaparvata lugens).
After 4 days mortality in % is determined. 100% means all planthoppers have been killed and 0% means none of the planthoppers have been killed.

Diabrotica balteata = Diabrotica balteata spray test; settings: Diabrotica balteata, 168 h; 160 μg/well, wheat seeds, after 7 days; read-out: efficacy (seedlings grown)
Procedure, shortened: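 Efficacy (%) read 7 days after infesting treated seedlings with 10-20 banded cucumber beetle larvae, 100% meaning growth as in uninfected untreated control and 0% no growth. Test solutions in water containing 1000 ppm emulsifier were sprayed onto wheat seeds germinated for 1 day on agar.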

Myzus persicae [4] = experiment: Myzus persicae oral test; settings: 120 h
Procedure, shortened: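 Feeding test: compound diluted in water was combined with IPL41 insect medium (33%+15% sugar) under a parafilm seal. A mixed population of green peach aphids fed through the membrane. Mortality (%) was scored after 5 days.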

[5] = test system: Aedes aegypti strain MONHEIM; experiment: Aedes aegypti test (AEDSAE surface treatment & contact assay); settings: 24 hours after contact, read-out: efficacy (mortality); for mortality at 4 mg/m2: surface concentration 4 mg/m^2, 30 minutes exposure; for mortality at 20 mg/m2: surface concentration 20 mg/m^2, 30 minutes exposure
Method: Aedes aegypti Test (AEDSAE Surface Treatment & Contact Assay)
(§2) Solvent: Aceton+2000 ppm rapeseed oil methyl ester (RME)
In order to produce a sufficient, active ingredient containing solution it is necessary to solve the test-compound in the solvent-mix (Acetone at 2 mg/ml/RME 2000 ppm). This solution is pipetted onto a glazed tile and after evaporation of the Acetone, adult mosquitoes of the species Aedes aegypti strain MONHEIM are placed onto the dried surface. The exposure time is 30 minutes.
(§3) Mortality in percent (%) is determined 24 hours after contact to the treated surface. 100% mortality means that all test-insects are dead, whereas 0% means that not a single insect died.

[6] = test system: Culex quinquefasciatus strain P00; experiment: Culex quinquefasciatus test (CULXFA surface treatment & contact assay); settings: 24 hours after contact, read-out: efficacy (mortality); for mortality at 20 mg/m2: surface concentration 20 mg/m^2, 30 minutes exposure; for mortality at 4 mg/m2: surface concentration 4 mg/m^2, 30 minutes exposure
Procedure, shortened: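 Compound dissolved in acetone (2 mg/ml) with 2000 ppm rapeseed oil methyl ester, applied to glazed tile and dried. Adult strain P00 mosquitoes exposed to the surface for 30 minutes. Percent mortality scored 24 hours after contact.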

Spodoptera frugiperda = Spodoptera frugiperda spray test; settings: in Zea mays, 168 h
Method: Spodoptera frugiperda—Spray Test
as §1
Maize (Zea mays) leaf sections are sprayed with a preparation of the active ingredient of the desired concentration. Once dry, the leaf sections are infested with fall armyworm larvae (Spodoptera frugiperda).
After 7 days mortality in % is determined. 100% means all caterpillars have been killed and 0% means none of the caterpillars have been killed.

[7] = test system: Musca domestica strain WHO-N; experiment: Musca domestica test (MUSCDO surface treatment & contact assay); settings: surface concentration 20 mg/m^2, 30 minutes exposure, 24 hours after contact, read-out: efficacy (mortality)
Method: Musca domestica Test (MUSCDO Surface Treatment & Contact Assay)
as §2
In order to produce a sufficient, active ingredient containing solution it is necessary to solve the test-compound in the solvent-mix (Acetone at 2 mg/ml/RME 2000 ppm). This solution is pipetted onto a glazed tile and after evaporation of the Acetone, adult flies of the species Musca domestica strain WHO-N are placed onto the dried surface. The exposure time is 30 minutes.
as §3

[8] = test system: Anopheles funestus strain FUMOZ-R; experiment: Anopheles funestus test (ANPHFU surface treatment & contact assay); settings: 24 hours after contact, read-out: efficacy (mortality); for mortality at 20 mg/m2: surface concentration 20 mg/m^2, 30 minutes exposure
Method: Anopheles funestus Test (ANPHFU Surface Treatment & Contact Assay)
as §2
In order to produce a sufficient, active ingredient containing solution it is necessary to solve the test-compound in the solvent-mix (Acetone at 2 mg/ml/RME 2000 ppm). This solution is pipetted onto a glazed tile and after evaporation of the Acetone, adult mosquitoes of the species Anopheles funestus strain FUMOZ-R (Hunt et al., Med Vet Entomol. 2005 September; 19(3):271-5) are placed onto the dried surface. The exposure time is 30 minutes.
as §3

SMILES | mortality at 500 g/ha (Myzus persicae [1]) | mortality at 500 g/ha (Nezara viridula) | mortality at 100 ppm (Ctenocephalides felis [2]) | pest or weed control at 5 µg/cm2, 5 µg/cm2 (Ctenocephalides felis [3]) | pest or weed control at 0.02 mg (Boophilus microplus) | mortality at 500 g/ha (Nilaparvata lugens) | pest or weed control at 160 µg/disc, 160 µg/well (Diabrotica balteata) | mortality at 4 ppm (Myzus persicae [4]) | mortality at 4 mg/m2 [5] | mortality at 20 mg/m2 [5] | mortality at 20 mg/m2 [6] | mortality at 500 g/ha (Spodoptera frugiperda) | mortality at 4 mg/m2 [6] | mortality at 20 mg/m2 [7] | mortality at 20 mg/m2 [8] | mortality at 4 mg/m2 ([8]; surface concentration 4 mg/m^2, 30 minutes exposure)
CC(c1ncnn1-c1ncccn1)N(CCC(F)(F)F)C(=O)c1cc(Cl)cc(S(C)(=O)=O)c1 (stereo not drawn) [Example I-039] | 100% | 100% | 100% | 100% | 100% | 100% | 100% | 100% |  |  |  |  |  |  |  | 
CON=C(C)c1cc(Cl)cc(C(=O)N[C@@H](C)c2ncnn2-c2ncccn2)c1 [Example I-057, 3-chloro-5-(N-methoxyethanimidoyl)-N-{(1S)-1-[1-(pyrimidin-2-yl)-1H-1,2,4-triazol-5-yl]ethyl}benzamide] | 90% | 100% | 100% | 100% |  |  | 80% | 100% | 80 to 100% | 90 to 100% | 80 to 100% | 100% |  |  |  | 
C[C@@H](NC(=O)c1cc(Cl)cc(S(=O)(=O)C(F)(F)F)c1)c1ncnn1-c1ccc(C#N)cn1 [Example I-067] |  | 100% | 100% | 90% | 80% |  | 100% | 100% | 80 to 100% | 90 to 100% | 80 to 100% | 100% | 80 to 100% | 80 to 100% |  | 
C[C@@H](NC(=O)c1cc(Cl)cc(S(=O)(=O)C(F)(F)F)c1)c1ncnn1-c1ncc(F)cc1F [Example I-078] |  | 100% |  |  |  |  | 100% |  | 80 to 100% | 90 to 100% | 80 to 100% | 100% | 80 to 100% | 80 to 100% | 85 to 100% | 
C[C@H](NC(=O)c1cc(Cl)cc(S(C)(=O)=O)c1)c1nc(C(F)(F)F)nn1-c1ncccn1 [Example I-091, 3-chloro-N-{(1S)-1-[1-(2-pyrimidinyl)-3-(trifluoromethyl)-1H-1,2,4-triazol-5-yl]ethyl}-5-(methylsulfonyl)benzamide] | 90% | 100% | 100% | 100% |  |  | 100% | 100% | 80 to 100% | 90 to 100% | 80 to 100% | 83% | 80 to 100% |  | 85 to 100% | 
C[C@H](NC(=O)c1cc(Cl)cc([S+]([O-])CC(F)(F)F)c1)c1ncnn1-c1ncccn1 (stereo partly drawn) [Example I-092, 3-chloro-N-{(1S)-1-[1-(pyrimidin-2-yl)-1H-1,2,4-triazol-5-yl]ethyl}-5-[(2,2,2-trifluoroethyl)sulfinyl]benzamide] | 100% | 100% |  | 80% |  | 100% | 100% | 100% | 80 to 100% | 90 to 100% | 80 to 100% |  | 80 to 100% |  |  | 85 to 100%
C[C@@H](NC(=O)c1cc(Cl)cc(S(C)(=O)=O)c1)c1ncnn1-c1ncc(C(F)(F)F)cn1 [Example I-095] | 90% | 100% |  | 100% |  |  | 100% | 100% |  |  |  | 100% |  |  |  | 
Cc1cnc(-n2ncnc2[C@@H](C)NC(=O)c2cc(Cl)cc(S(=O)(=O)C(F)(F)F)c2)nc1 [Example I-099] | 100% | 100% |  |  |  |  | 100% | 100% |  |  |  | 100% |  |  |  | 
C[C@H](NC(=O)c1cc(Cl)cc(C2(C#N)CC2)c1)c1ncnn1-c1ccc(C#N)cn1 [Example I-119, 3-chloro-5-(1-cyanocyclopropyl)-N-{(1S)-1-[1-(5-cyanopyridin-2-yl)-1H-1,2,4-triazol-5-yl]ethyl}benzamide] | 90% | 100% |  |  |  |  | 100% | 100% |  |  |  | 100% |  |  |  | 
